The values that follow come from US20240368122A1, “JAK2 INHIBITORS AND METHODS OF USE THEREOF” (RELAY THERAPEUTICS, INC., priority 2021, published 2024).

Read-outs that look alike come from different tables or passages of the source.

Experiment [1] concerns the target T1, JAK2 JH2 WT (V536-D812) [W659A, W777A, F794H solubilizing mutations] (Homo sapiens, UniProt O60674, F794H/W659A/W777A).
T1 construct: **JAK2 JH2 WT (V536-D812) [W659A, W777A, F794H solubilizing mutations]; C-thrombin-avi-His6; thrombin cleavage site (C); His6 (C); purchased Biortus
Put plainly: Surface Plasmon Resonance (SPR) binding assay, JAK2 JH2 domain. The method, boiled down: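 Kinetics came from 1:1 fits of single-cycle runs at 20 °C: four 3-fold dilutions from 5 uM for JH1 or 500 nM for JH2, 60 s association, and 300 s or 1200 s dissociation respectively. Protein was freshly captured per compound in the presence of 10 uM stabilizer compound, with running buffer of pH 7.5 HEPES/NaCl/glycerol/DTT plus 2% DMSO.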

The test system of experiment [2] is TF1 JAK2 V617F STAT3 reporter. Put plainly: Cellular TF1 STAT3 assay (luciferase reporter), JAK2 V617F. The format is cell-based. To be noted: Homo sapiens, TF-1, TF1 cells, JAK2 V617F, read-out: Cell PD-TF1 JAK2 V617F STAT3 (IC50). The method, boiled down: (§1)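 Inhibition of JAK2 V617F-mediated STAT3/STAT5 signalling is measured by reporter luminescence in TF1 erythroleukemia cells treated overnight (18-20 h) with a 10-point compound series; DMSO serves as vehicle.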

Experiment [3] has as its system TF1 JAK2 V617F STAT5 reporter. The experiment is described as follows: Cellular TF1 STAT5 assay (luciferase reporter), JAK2 V617F. Type of experiment: cell-based. To be noted: Homo sapiens, TF-1, TF1 cells, JAK2 V617F, read-out: Cell PD TF1 V617F STAT5 (IC50). In outline: as §1
Background: Reporter assays use an easily measured gene product as a stand-in for the process of interest.

T1 sequence (O60674 536-812 W659A/W777A/F794H): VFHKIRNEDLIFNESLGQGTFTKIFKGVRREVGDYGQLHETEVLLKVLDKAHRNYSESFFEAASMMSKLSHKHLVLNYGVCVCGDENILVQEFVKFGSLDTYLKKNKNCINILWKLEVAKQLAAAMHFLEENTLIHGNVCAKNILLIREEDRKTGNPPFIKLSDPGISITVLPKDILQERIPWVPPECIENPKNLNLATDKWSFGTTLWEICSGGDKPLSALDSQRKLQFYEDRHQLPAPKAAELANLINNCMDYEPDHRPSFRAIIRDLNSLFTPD

Take `CNC(=O)c1nnc(NC(=O)C2CC2)cc1Nc1cccc(-c2cnn(C3CN(Cc4cccc(C(C)=O)n4)[C@H]3C)c2)c1OC` (stereo partly drawn) [Compound 377]: the Kd in experiment [1] was in the range of 0.01 to 10 nM. Also, the IC50 in experiment [2] and in experiment [3] was 500 to 5000 nM throughout.
In experiment [1], `CNC(=O)c1nnc(NC(=O)C2CC2)cc1Nc1cccc(-c2cnn(C3CN(Cc4cccc(P(C)(C)=O)n4)C3)c2)c1OC` [Compound 378] returned an equilibrium dissociation constant (Kd) of 0.01 to 10 nM. Besides, the half-maximal inhibitory concentration (IC50) in experiment [2] and in experiment [3] was 500 to 5000 nM in each case.
Compound `CNC(=O)c1nnc(NC(=O)C2CC2)cc1Nc1cccc(-c2ccc(C(=O)N(C)Cc3cc(P(C)(C)=O)ccn3)nc2)c1OC` [Compound 380] showed a Kd in experiment [1] of 0.01 to 10 nM. Moreover, the IC50 in experiment [2] and in experiment [3] was 5000 to 100000 nM in each case.
The compound `CNC(=O)c1nnc(NC(=O)C2CC2)cc1Nc1cccc(-c2cnn(C3CN(Cc4cccc5c(F)cnn45)C3)c2)c1OC` [Compound 381] showed a Kd in experiment [1] of 0.01 to 10 nM. The IC50 in experiment [2] and in experiment [3] was 50 to 500 nM throughout.
As to `CNC(=O)c1nnc(NC(=O)C2CC2)cc1Nc1cccc(-c2cnn(C3CN(Cc4cccc(C5(O)COC5)n4)C3)c2)c1OC` [Compound 382], the Kd in experiment [1] is 0.01 to 10 nM. Also, the IC50 in experiment [2] and in experiment [3] was 50 to 500 nM in each case.
For `CNC(=O)c1nnc(NC(=O)C2CC2)cc1Nc1cccc(-c2cnn([C@H]3C[C@@H](N(C)c4ccccn4)C3)c2)c1OC` [Compound 383], the Kd in experiment [1] lay in the range of 0.01 to 10 nM. Besides, the IC50 in experiment [2] and in experiment [3] was 5000 to 100000 nM throughout.
Consider `CNC(=O)c1nnc(NC(=O)C2CC2)cc1Nc1cccc(-c2cnn(C3CN(Cc4cccc(C(=O)N(C)CCN)n4)C3)c2)c1OC` [Compound 384], for which the Kd in experiment [1] lay within 0.01 to 10 nM. Besides, the IC50 in experiment [2] and in experiment [3] was 500 to 5000 nM throughout.
On to `CNC(=O)c1nnc(NC(=O)C2CC2)cc1Nc1cccc(-c2ccc(C3CN(Cc4ccc5c(n4)CCC5)C3)nc2)c1OC` [Compound 385], for which the Kd in experiment [1] fell in the range of 50 to 500 nM. For the same compound, the IC50 in experiment [2] was in the range of 5000 to 100000 nM; in experiment [3] it was 500 to 5000 nM.
With `CNC(=O)c1nnc(NC(=O)C2CC2)cc1Nc1cccc(-c2ccc(C3CN(Cc4ccc(Cl)cn4)C3)nc2)c1OC` [Compound 388], the Kd in experiment [1] was 50 to 500 nM. In addition, the IC50 is 5000 to 100000 nM in experiment [2] and 500 to 5000 nM in experiment [3].
Taken in the same sequence, the figures for `CCOc1cccc(CN2CC(c3ccc(-c4cccc(Nc5cc(NC(=O)C6CC6)nnc5C(=O)NC)c4OC)cn3)C2)n1` [Compound 389] were 50 to 500 nM, 5000 to 100000 nM and 500 to 5000 nM.
The matching figures for `CNC(=O)c1nnc(NC(=O)C2CC2)cc1Nc1cccc(-c2ccc(C3CN(Cc4cccc(C(F)(F)F)n4)C3)nc2)c1OC` [Compound 391]: 10 to 50 nM, 5000 to 100000 nM and 500 to 5000 nM.
The matching figures for `CCS(=O)(=O)c1ccnc(CN(C)C(=O)c2ccc(-c3cccc(Nc4cc(NC(=O)C5CC5)nnc4C(=O)NC)c3OC)cn2)c1` [Compound 394]: 0.01 to 10 nM, 10 to 50 nM and 10 to 50 nM.
Compound `[2H]C([2H])(c1cccnn1)N1CC(n2cc(-c3cccc(Nc4cc(NC(=O)C5CC5)nnc4C(=O)NC)c3OC)cn2)C1` [Compound 408] gave a Kd in experiment [1] (SPR, JAK2 JH2 domain) of 0.01 to 10 nM. In addition, the IC50 in experiment [2] and in experiment [3] was 50 to 500 nM in each case.
Consider `[2H]C([2H])(c1cccc(C#N)n1)N1CC(n2cc(-c3cccc(Nc4cc(NC(=O)C5CC5)nnc4C(=O)NC)c3OC)cn2)C1` [Compound 409], for which, in experiment [1] (SPR, JAK2 JH2 domain), the Kd lay in the range of 0.01 to 10 nM. Besides, the IC50 in experiment [2] and in experiment [3] was 50 to 500 nM each time.

As a reminder, the Kd is the constant that tells how readily two partners part at equilibrium. A lower Kd goes with higher affinity. In general, IC50 refers to the concentration that inhibits the measured activity by half.
